# Columns and labels:
# [1] = system: IP-Implanted L1210 Leukemia; assay: Dose-response against IP-implanted L1210 leukemia, IP treatment Days 1, 5 and 9, 30-day test (Table 2); assay type: in vivo, CD2Fl male mice
# Method: (§1) Biological properties of the compounds of the present invention were determined following the protocol described in Cancer Chemotherapy Reports, Vol. 3, No. 3, 1972 which report is incorporated herein by reference.
# (§2) This experiment (A8-00005 3LE31) was conducted at the Southern Research Institute, Birmingham, Ala. under the supervision of Dr. Daniel Griswold. The protocols were the same as those published previously (Geran et al., Cancer Chemotherapy Reports 3: No. 2, 1972 [Attachment 11]). 10^5 cells were implanted intraperitoneally in CD2Fl male mice on Day 0. Drug treatments were given intraperitoneally as single injections at the doses indicated on Days 1, 5 and 9 after tumor implantation. The diluent was saline except for NSC-271674 where 5% sodium bicarbonate was used. All drugs were prepared fresh on the day of injection, and all were administered in solution. Median survival times for both control and drug-treated mice were determined and expressed as a percentage (% T/C). Body weights were determined on Day 5 and expressed as a weight difference (body weight of the drug-treated animals minus that of the control animals in grams) (T-C). The diluent control animals lived a median of 8.4 days and gained 1.9 grams by Day 5 in this experiment. All animals, including Day 30 survivors, were used in the calculation of median survival times. The log10 change in tumor burden refers to the net log change in viable tumor cell population at the end of therapy (Rx) as compared to the start of therapy; e.g., a […] means that there was a […] and a 3 log change means there was a 1000-fold increase in tumor burden at the end of therapy. The tumor burden at the start of therapy was about 6.1×10^5 cells in this experiment.
# IP L1210 [2] = assay: Activity against IP-implanted L1210 leukemia sensitive to cisplatin, 30 day test (Table 3); assay type: in vivo, Female CD2Fl mice
# Method: as §1
# (§3) Other known mechanisms of resistance for other classes of agents, such as gene amplification or target enzyme change or amplication, also need to be explored. The experiments summarized in Table 3 were conducted at the same time against both sublines using the same drug preparations. […] These experiments were repeated in a second laboratory as documented in Table 4. However, in these experiments the animals were held for 60 rather than 30 days to evaluate whether or not long-term survivors are produced after drug treatment in a more challenging setting.
# as §2
# These experiments (A8-00008 3LE31 and A8-00001 3DP31) were conducted concurrently at the Southern Research Institute, Birmingham, Ala. under the supervision of Dr. Daniel Griswold. See Table 4 for experimental details. The diluent control animals bearing L1210 leukemia lived a median of 8.6 days and gained 1.3 grams by Day 5. […] Female CD2Fl mice were used for these experiments.
# IP L1210 [3] = assay: Activity against IP-implanted L1210 leukemia sensitive to cisplatin, 60 day test (Table 4); assay type: in vivo, Female CD2Fl mice
# Method: as §1, §3, §2
# (§4) These experiments (23-00081 3LE31 and 23-00003 3DP3l) were conducted concurrently at the Mason Research Institute, Worcester, MA under the supervision of Dr. William Cobb. See Table 4 for experimental details. The diluent control animals bearing L1210 leukemia lived a median of 8.3 days and gained 1.6 grams by Day 5. […] Female CD2Fl mice were used for these experiments.
# IP L1210/Cisplatin = assay: Activity against IP-implanted L1210/Cisplatin leukemia resistant to cisplatin, 60 day test (Table 4); assay type: in vivo, Female CD2Fl mice
# Method: as §1
# Other known mechanisms of resistance for other classes of agents, such as gene amplification or target enzyme change or amplication, also need to be explored. The experiments summarized in Table 3 were conducted at the same time against both sublines using the same drug preparations. […] These experiments were repeated in a second laboratory as documented in Table 4. However, in these experiments the animals were held for 60 rather than 30 days to evaluate whether or not long-term survivors are produced after drug treatment in a more challenging setting. […]
# as §4
smiles,measurement,setting,value
"N.N.[Cl][Pt][Cl] [Cisplatin, cis-diamminedichloroplatinum (II), reference compound]",30-Day Survivors/Total,[1]; 1.25 mg/kg/dose IP,0/6
same,Approx. Log10 Change in Tumor Burden at End of Rx,[1]; 1.25 mg/kg/dose IP,~2.9 log10
same,Body Weight Difference,[1]; 1.25 mg/kg/dose IP,-1.0 Grams
same,Median % T/C,[1]; 1.25 mg/kg/dose IP,123%
same,30-Day Survivors/Total,[1]; 5 mg/kg/dose IP,0/6
same,Approx. Log10 Change in Tumor Burden at End of Rx,[1]; 5 mg/kg/dose IP,~2.4 log10
same,Body Weight Difference,[1]; 5 mg/kg/dose IP,-1.4 Grams
same,Median % T/C,[1]; 5 mg/kg/dose IP,152%
same,30-Day Survivors/Total,[1]; 10 mg/kg/dose IP,0/6
same,Approx. Log10 Change in Tumor Burden at End of Rx,[1]; 10 mg/kg/dose IP,~1.9 log10
same,Body Weight Difference,[1]; 10 mg/kg/dose IP,-1.3 Grams
same,Median % T/C,[1]; 10 mg/kg/dose IP,166%
same,30-Day Survivors/Total,[1]; 20 mg/kg/dose IP,3/6
same,Approx. Log10 Change in Tumor Burden at End of Rx,[1]; 20 mg/kg/dose IP,~-5.7 log10
same,Body Weight Difference,[1]; 20 mg/kg/dose IP,-5.0 Grams
same,Median % T/C,[1]; 20 mg/kg/dose IP,357%
same,Log reduction in tumor cell burden at the end of therapy,[1]; best dose,-5.7 log10
same,Optimal dose (dose producing best therapeutic response),"[1]; day 1, 5 and 9 schedule",20 mg/kg/injection
same,30 Day Survivors/Total,IP L1210 [2]; 1.25 mg/kg/dose,0/6
same,Approx. Log10 Change in Tumor Burden at End of RX,IP L1210 [2]; 1.25 mg/kg/dose,~3.0 log10
same,Median % T/C,IP L1210 [2]; 1.25 mg/kg/dose,116%
same,30 Day Survivors/Total,IP L1210 [2]; 5 mg/kg/dose,0/6
same,Approx. Log10 Change in Tumor Burden at End of RX,IP L1210 [2]; 5 mg/kg/dose,~2.2 log10
same,Median % T/C,IP L1210 [2]; 5 mg/kg/dose,162%
same,30 Day Survivors/Total,IP L1210 [2]; 10 mg/kg/dose,3/6
same,Approx. Log10 Change in Tumor Burden at End of RX,IP L1210 [2]; 10 mg/kg/dose,~-5.9 log10
same,Median % T/C,IP L1210 [2]; 10 mg/kg/dose,348%
same,30 Day Survivors/Total,IP L1210 [2]; 20 mg/kg/dose,0/6
same,Approx. Log10 Change in Tumor Burden at End of RX,IP L1210 [2]; 20 mg/kg/dose,~2.4 log10
same,Median % T/C,IP L1210 [2]; 20 mg/kg/dose,148%
same,60 Day Survivors/Total,IP L1210 [3]; 1.25 mg/kg/dose,0/10
same,Body Weight Difference,IP L1210 [3]; 1.25 mg/kg/dose,-0.6 Grams
same,Median % T/C,IP L1210 [3]; 1.25 mg/kg/dose,127%
same,60 Day Survivors/Total,IP L1210 [3]; 5 mg/kg/dose,0/10
same,Body Weight Difference,IP L1210 [3]; 5 mg/kg/dose,-2.4 Grams
same,Median % T/C,IP L1210 [3]; 5 mg/kg/dose,240%
same,60 Day Survivors/Total,IP L1210 [3]; 10 mg/kg/dose,0/10
same,Body Weight Difference,IP L1210 [3]; 10 mg/kg/dose,-5.1 Grams
same,Median % T/C,IP L1210 [3]; 10 mg/kg/dose,107%
same,60 Day Survivors/Total,IP L1210 [3]; 20 mg/kg/dose,0/10
same,Body Weight Difference,IP L1210 [3]; 20 mg/kg/dose,-5.8 Grams
same,Median % T/C,IP L1210 [3]; 20 mg/kg/dose,Toxic
same,60 Day Survivors/Total,IP L1210/Cisplatin; 1.25 mg/kg/dose,0/10
same,Body Weight Difference,IP L1210/Cisplatin; 1.25 mg/kg/dose,-0.1 Grams
same,Median % T/C,IP L1210/Cisplatin; 1.25 mg/kg/dose,103%
same,60 Day Survivors/Total,IP L1210/Cisplatin; 5 mg/kg/dose,0/10
same,Body Weight Difference,IP L1210/Cisplatin; 5 mg/kg/dose,-2.3 Grams
same,Median % T/C,IP L1210/Cisplatin; 5 mg/kg/dose,110%
same,60 Day Survivors/Total,IP L1210/Cisplatin; 10 mg/kg/dose,0/10
same,Body Weight Difference,IP L1210/Cisplatin; 10 mg/kg/dose,-5.1 Grams
same,Median % T/C,IP L1210/Cisplatin; 10 mg/kg/dose,87%
same,60 Day Survivors/Total,IP L1210/Cisplatin; 20 mg/kg/dose,0/10
same,Body Weight Difference,IP L1210/Cisplatin; 20 mg/kg/dose,-5.6 Grams
same,Median % T/C,IP L1210/Cisplatin; 20 mg/kg/dose,Toxic
same,Activity against L1210/cisplatin,"IP L1210/Cisplatin; mouse, in vivo",lack of activity

# Source: patent US4599352A, “Antineoplastic platinum (IV) complexes and compositions” (priority 1984, dated 1986)
